Values of other authors as cited in US20110059177A1, “Cardioplegia Solution for Cardiac Surgery” (priority 2008, published 2011).

Tests used:
[1] = system: common carotid artery IMT (intima-media thickness); conditions: patients with coronary artery disease, 6 months

Compound | common carotid artery IMT (intima-media thickness) [1] | markers of inflammation [1] | activity level relative to tetracycline (150 mg of minocycline vs 250 mg of tetracycline at 24-48 hours) [times] | serum levels relative to most other tetracyclines (result of long half-life)
CCOC(=O)C1=C(C)NC(C)=C(C(=O)OCC)C1c1ccccc1/C=C/C(=O)OC(C)(C)C [Lacidipine] | significant reduction | decrease | – | –
CN(C)c1ccc(O)c2c1C[C@H]1C[C@H]3[C@H](N(C)C)C(O)=C(C(N)=O)C(=O)[C@@]3(O)C(O)=C1C2=O [Minocycline] | – | – | 16 | 2-4 times
